Assay results published in patent publication US8940785B2, “Association between 4-{3-[cis-hexahydrocyclopenta[c]pyrrol-2(1H)-yl]propoxy}benzamide and an acetylcholinesterase inhibitor, and pharmaceutical compositions containing it” (priority 2011, dated 2015).
Where a name gives a salt, the structure may show the parent alone. Read-outs that look alike come from different tables or passages of the source.

What was measured:
[1] = system: middle-aged (14-15 months old) C57B16 mouse; assay: contextual serial discrimination test (model of episodic memory); assay type: in vivo; settings: chronic treatment for 9 days; for power of contextual memory (correct responses−interfering responses): carrier −28%
Source text: The effects of 4-{3-[cis-hexahydrocyclopenta[c]pyrrol-2(1H)-yl]propoxy}benzamide and donepezil (both in the form of a hydrochloride), administered on their own or in combination, were studied using a contextual serial discrimination test in the middle-aged (14-15 months old) C57B16 mouse (n=12 per group) (Célérier et al., Learn Mem., 2004, 11(2), 196-204; Tronche et al., Behav. Brain Res., 2010, 215(2): 255-60). […] This model is relevant for evaluating the effects of products in Alzheimer's disease because patients suffering from that form of dementia also have disturbances of contextual episodic memory, this being the case from a very early stage (Gold and Budson, Expert Rev Neurother., 2008, 8(12): 1879-1891).
The mice, placed in a box with raised edges, learn two types of consecutive spatial discrimination (D1: white floor, then D2: black floor) on a floor with four holes, in which just one of the holes is baited, the arrangement being opposite in D1 and in D2 (see FIG. 1). Each discrimination is performed on a specific floor (black or white), which constitutes the internal context specific to each discrimination. 24 hours after the learning step, the mice are returned to the white contextual floor, and the following are measured: • the percentage of correct responses (i.e. % of lowering the head into the hole that was baited during the learning exercise on the white floor), • the percentage of interfering responses (i.e. % of lowering the head into the hole that was baited during the learning exercise on the black floor, the last context presented to the mice), • and the percentage of errors (i.e. % of lowering the head into the two holes that were not baited during learning, whether on the white floor or on the black floor (see FIG. 1).
The effects of 4-{3-[cis-hexahydrocyclopenta[c]pyrrol-2(1H)-yl]propoxy}benzamide and rivastigmine (used in the form of a hydrogen tartrate), administered on their own or in combination, were studied using the contextual serial discrimination test in the middle-aged C57B16 mouse described in the Example above.
The effects of 4-{3-[cis-hexahydrocyclopenta[c]pyrrol-2(1H)-yl]propoxy}benzamide and galantamine (used in the form of a hydrobromide), administered on their own or in combination, were also studied using the contextual serial discrimination test in the middle-aged C57B16 mouse.

[2] = system: C57B16 mouse; settings: administered on its own
Experimental: The effects, in terms of safety, of 4-{3-[cis-hexahydrocyclopenta[c]pyrrol-2(1H)-yl]propoxy}-benzamide and donepezil (both in the form of a hydrochloride), administered on their own or in association, were studied using Irwin's primary observation test in the C57B16 mouse (n=4 individuals per group).
Behavioural changes, physiological and neurotoxic symptoms, rectal temperature and pupil diameter were recorded using a standardised observation grid derived from that of Irwin.

## COc1ccc2c3c1O[C@H]1C[C@@H](O)C=C[C@@]31CCN(C)C2 [galantamine, reference compound]
[1]; Example C, FIG. 5, galantamine 0.3 mg/kg of base per os
  power of contextual memory (correct responses−interfering responses): −18%

## CCN(C)C(=O)Oc1cccc([C@H](C)N(C)C)c1 [rivastigmine, reference compound]
[1]; Example B, FIG. 4, rivastigmine 0.1 mg/kg of base per os
  power of contextual memory (correct responses−interfering responses): −9%

## COc1cc2c(cc1OC)C(=O)C(CC1CCN(Cc3ccccc3)CC1)C2 (stereo not drawn) [donepezil hydrochloride, donepezil]
[1]; Example A, FIG. 2, donepezil hydrochloride 0.1 mg/kg of base per os, tested 24 hours after learning
  percentage of correct responses compared to the carrier: no significant improvement
[2]; donepezil 1 mg/kg of base per os (strongest dose)
  observable changes in Irwin's test: reduces reactivity to touch and causes slight sedation
[2]; donepezil 0.1 and 0.3 mg/kg of base per os
  observable changes in Irwin's test: no observable changes

## NC(=O)c1ccc(OCCCN2C[C@H]3CCC[C@H]3C2)cc1 [4-{3-[cis-hexahydrocyclopenta[c]pyrrol-2(1H)-yl]propoxy}benzamide]
[1]; Example A, FIG. 2, 0.3 mg/kg of base per os
  increase in the level of correct responses compared to the carrier: more than 60%
[1]; Example A, FIG. 2, 1 mg/kg of base per os
  increase in the level of correct responses compared to the carrier: more than 60%
[1]; Example B, FIG. 4, 0.3 mg/kg of base per os
  power of contextual memory (correct responses−interfering responses): +6%
[1]; Example B, FIG. 4, 1 mg/kg of base per os
  power of contextual memory (correct responses−interfering responses): +10%
[1]; Example C, FIG. 5, 0.3 mg/kg of base per os
  power of contextual memory (correct responses−interfering responses): −3%
[1]; Example C, FIG. 5, 1 mg/kg of base per os
  power of contextual memory (correct responses−interfering responses): +9%
[2]; 0.3 and 1 mg/kg of base per os
  observable changes in Irwin's test: no observable changes
